Entries after “also recorded” stand apart in the source; their conditions may differ.
Key:
Hek293 cells [1] = experiment: Western blot of Hek293 cells, histone and tubulin acetylation; format: cell-based; conditions: inhibitors 1 μM, tubA 0.5 μM, 24 h
Hek293 cells [2] = experiment: global formylation levels of Hek293 cells; format: cell-based; conditions: inhibitors 1 μM, tubA 0.5 μM, 24 h
Hek293 cells [3] = experiment: global valerylation levels of Hek293 cells; format: cell-based; conditions: inhibitors 1 μM, tubA 0.5 μM, 24 h
RAW264.7 macrophages = experiment: NO production in LPS-challenged RAW264.7 macrophages; format: cell-based; conditions: 1 μM; decrease completely offset when normalized
RAW264.7 cells [4] = experiment: cell viability of RAW264.7 cells; format: cell-based
class IIa HDACs = conditions: cited from earlier work
Hek293 lysates = experiment: deacylase activities of Hek293 lysates with inhibitors; format: cell-based; conditions: 24 h; vorinostat and PD-106 1 μM, tubA 0.5 μM
RAW264.7 cells [5] = experiment: HMGB-1 secretion from activated RAW264.7 cells; format: cell-based; conditions: LPS-activated RAW264.7; 6 h
RAW264.7 cells [6] = experiment: p65 and HDAC3 subcellular localization in LPS-treated RAW264.7 cells; format: cell-based; conditions: after LPS treatment
HDAC3 = HDAC3 (Homo sapiens, UniProt O15379); experiment: HDAC3 coincubated with TFA substrate and inhibitor
A549 cell line = conditions: reasonable concentrations; cited from earlier work
RAW264.7 cells [7] = experiment: Western blot of RAW264.7 cells, protein acetylation; format: cell-based; conditions: tubA at 0.5 μM
HDAC6 = HDAC6 specific inhibitor; cited from earlier work
HCT116 and HT29 cells = conditions: 2 μM for 24 h; cited from earlier work

HDAC3, sequence (O15379 whole entry): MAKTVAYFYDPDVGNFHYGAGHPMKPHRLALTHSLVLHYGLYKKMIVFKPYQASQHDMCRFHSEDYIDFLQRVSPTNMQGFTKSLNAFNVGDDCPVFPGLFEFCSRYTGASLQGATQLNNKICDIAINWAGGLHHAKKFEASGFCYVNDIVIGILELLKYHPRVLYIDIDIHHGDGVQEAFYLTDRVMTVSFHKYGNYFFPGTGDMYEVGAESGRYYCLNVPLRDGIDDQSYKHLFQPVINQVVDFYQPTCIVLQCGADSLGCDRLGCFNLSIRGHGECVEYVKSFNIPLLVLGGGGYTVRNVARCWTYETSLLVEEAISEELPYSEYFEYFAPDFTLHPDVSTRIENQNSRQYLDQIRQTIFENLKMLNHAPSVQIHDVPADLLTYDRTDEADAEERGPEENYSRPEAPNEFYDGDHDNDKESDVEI
HDAC3, sequence (Q9Y618 395-489 partner limits assumed): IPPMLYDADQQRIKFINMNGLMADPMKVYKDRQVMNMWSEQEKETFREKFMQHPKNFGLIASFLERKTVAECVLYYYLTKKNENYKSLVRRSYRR

Structure (SMILES) | histone H3 and H4 acetylation (Hek293 cells [1]) | tubulin acetylation (Hek293 cells [1]) | global protein formylation (Hek293 cells [2]) | global protein valerylation (Hek293 cells [3]) | NO release, before normalization to cell count/viability (RAW264.7 macrophages) | lethality (cell viability) (RAW264.7 cells [4]) | inhibitory activity for class IIa HDACs (class IIa HDACs) | deacetylase activity of Hek293 lysates (Hek293 lysates) | deformylase activity of Hek293 lysates (Hek293 lysates) | devalerylase activity of Hek293 lysates (Hek293 lysates) | HMGB-1 secretion (RAW264.7 cells [5]) | nuclear localization of HDAC3 (RAW264.7 cells [6]) | effect on HDAC3's ability to deacylate the TFA substrate (HDAC3) | p53 Lys373 and Lys382 acetylation (A549 cell line) | p53 Lys382 acetylation (RAW264.7 cells [7]) | IC50 (HDAC6) [nM] | p53 Lys382 acetylation (HCT116 and HT29 cells)
Nc1ccccc1NC(=O)c1ccc(CNC(=O)OCc2cccnc2)cc1 [entinostat] | induced hyperacetylation of histones | without affecting tubulin acetylation levels | also capable of this effect | global protein hypervalerylation | did lower NO release | more lethal than 2a–2c |  |  |  |  |  |  |  |  |  |  | 
O=C(NO)C(c1ccccc1)c1ccccc1 [dPAHA, diphenyl acetic hydroxamic acid] |  |  |  |  |  |  | only possesses the ability to inhibit class IIa HDACs |  |  |  |  |  |  |  |  |  | 
O=C(CCCCCCC(=O)Nc1ccccc1)NO [vorinostat] | induced hyperacetylation of tubulin and histones H3 and H4 | induced hyperacetylation of tubulin and histones H3 and H4 | caused global protein hyperformylation | global protein hypervalerylation | did lower NO release | more lethal than 2a–2c |  | inhibit both deacetylation and deformylation; also recorded: lowering in both deacetylation and devalerylation | inhibit both deacetylation and deformylation | lowering in both deacetylation and devalerylation | prevents HMGB-1 secretion | not as pronounced | capable of altering HDAC3’s ability to deacylate the TFA substrate |  |  |  | 
C/C=C1\NC(=O)[C@H]2CSSCC/C=C/[C@H](CC(=O)N[C@H](C(C)C)C(=O)N2)OC(=O)[C@H](C(C)C)NC1=O [romidepsin] |  |  |  |  |  |  |  |  |  |  |  |  |  | induce hyperacetylation of Lys373 and Lys382 |  |  | 
CN1CCc2c(c3ccccc3n2Cc2ccc(C(=O)NO)cc2)C1 [Tubastatin A] | only affected acetylated tubulin levels | only affected acetylated tubulin levels | induced global protein hyperformylation | nonsignificant hypovalerylation |  |  |  | did not affect overall deacetylation activity; also recorded: no effect on deacetylation or devalerylation | did lower deformylation activity | no effect on deacetylation or devalerylation |  |  |  |  | do not demonstrate this increase | […] | able to induce hyperacetylation of Lys382

From article PMC5567816 (ACS chemical biology, 2017)
